Values quoted from earlier work in patent US20060251750A1, “Soy formulations and their use in skin care” (priority 2002, published 2006).

Key:
[1] = tested on: UV radiation; conditions: lotions
[2] = tested on: squamous cell carcinomas; conditions: daily topical applications of lotions
[3] = tested on: photocarcinogenesis; conditions: hairless mice; both topical and oral administration

| Molecule | inflammatory edema reactions induced by UV radiation [1] | suppression of contact hypersensitivity induced by UV radiation [1] | proportion of tumors progressing from benign papillomas to malignant squamous cell carcinomas [2] | size of these carcinomas [2] | initiation and promotion of photocarcinogenesis [3] | tumor incidence and multiplicity [3] |
| --- | --- | --- | --- | --- | --- | --- |
| Oc1ccc(C2=Cc3ccc(O)cc3OC2)cc1 [dehydroequol] | reduce | reduce | – | – | – | – |
| Oc1ccc([C@H]2COc3cc(O)ccc3C2)cc1 [equol] | reduce | reduce | reduce | reduce | – | – |
| O=c1c(-c2ccc(O)cc2)coc2cc(O)cc(O)c12 [genistein] | reduce | reduce | – | – | inhibit | reduction |
| isoequol | reduce | reduce | – | – | – | – |
